Where two headings read alike, the source gives them in different places.
Experiments:
[1] = target: T1, chymotrypsin-like (CT-L) activity of purified 20S rabbit proteasome (Oryctolagus cuniculus, UniProt G1T4Q9); experiment: Proteolytic activity of purified 20S proteasome, fluorogenic substrate Suc-Leu-Leu-Val-Tyr-AMC; format: biochemical; conditions: for proteasome (chymotrypsin-like) inhibitory activity, in words / IC50: purified rabbit 20S proteasome; for decrease of proteasome inhibition activity relative to comparator compound: 14u, 14v vs linear acetic acid analogues, 14q vs lead compound 10a
T1 sequence (G1T4Q9 1-263): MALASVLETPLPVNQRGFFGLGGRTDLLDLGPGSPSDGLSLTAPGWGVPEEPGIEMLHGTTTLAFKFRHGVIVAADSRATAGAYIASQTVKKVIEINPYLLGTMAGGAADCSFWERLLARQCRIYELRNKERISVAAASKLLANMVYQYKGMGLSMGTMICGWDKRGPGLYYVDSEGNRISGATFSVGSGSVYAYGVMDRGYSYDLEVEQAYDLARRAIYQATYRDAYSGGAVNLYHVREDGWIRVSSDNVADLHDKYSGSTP
Procedure: The inhibitory activity of the compounds was calculated based on vehicle control). This technique monitors the hydrolytic release of a coumarin species from a synthetic peptide substrate.
The assay was conducted by using a fluorogenic peptide as substrate to test synthesized compounds for inhibitory activity against the chymotrypsin-like activity of the purified rabbit 20S proteasome. Briefly, 70 ng of purified 20S proteasome was incubated with 20 μM Suc-Leu-Leu-Val-Tyr-AMC for 1 hour at 37° C. in 100 μl of assay buffer (50 mM Tris-HCl, pH 7.6) with or without inhibitors. After incubation, production of hydrolyzed 7-amido-4-methyl-coumarin (AMC) was measured using a WALLAC Victor2 1420 Multilabel Counter with an excitation filter of 355 nm and an emission filter of 460 nm (Perkin Elmer Life Sciences, Turku, Finland). The inhibitory activity of the compounds was calculated based on vehicle control.

[2] = target: T2, CT-L activity of the proteasome in MCF-7 human breast cancer cells (Homo sapiens, UniProt P20618+P28074); experiment: Proteolytic activity in cell lysates of treated intact MCF-7 cells; format: cell-based; conditions: intact cells treated 16 h, CT-L measured in cell lysates; two determinations where two values
T2 construct: endogenous in cells; host or cells: MCF-7
Procedure: Human MCF-7 breast cancer cells were cultured in DMEM medium containing 10% fetal calf serum (FCS) and 100 units/ml of penicillin and 100 μg/ml of streptomycin. Cells were maintained at 37° C. in a humidified incubator in an atmosphere of 5% CO2. Cells were treated with different concentrations of PI-083, YG1-080, YG1-075, HL2-090-2, HL2-090-4, HL2-090-6, and HL2-090-9 or vehicle control (DMSO) for 16 h.
Intact cells were treated with compounds and lysates prepared as described above. Cell lysates (5 μg) was incubated with 20 μM Suc-Leu-Leu-Val-Tyr-AMC for the CT-L activity for 1 h at 37° C. in 100 μl of assay buffer (50 mM Tris-HCl, pH 7.6). After incubation, production of hydrolyzed 7-amido-4-methyl-coumarin (AMC) groups was measured using a WALLAC Victor^2 1420 Multilabel Counter with an excitation filter of 355 nm and an emission filter of 460 nm (Perkin Elmer Life Sciences, Turku, Finland).

[3] = tested on: MCF-7 breast cancer cells; experiment: MTT metabolism assay; format: cell-based, human; conditions: MCF-7, 72 h (Table 6), read-out: IC50 for cell viability measured by MTT assay in MCF-7 human breast cancer cells
Procedure: Cells were plated in 96-well plates in 100 μl medium and allowed to attach overnight. […] Media was aspirated after 24 or 72 hours and replaced with 100 μl complete media containing 1 mg/ml MTT and incubated for three hours at 37° C. in 5% CO2 humidified incubator. Media was then aspirated and DMSO was added. Cells were incubated for 10 min at room temperature while shaking, and the absorbance was determined at 540 nm using a μQuant spectrophotometric plate reader (Bio-TEK, Winooski, Vt.).
Cells were plated in 96-well plates in 100 μl medium and allowed to attach overnight. Cells were then incubated for 72 h with varying concentrations of PI-083, YG1-080, YG1-075, HL2-090-2, HL2-090-4, HL2-090-6, and HL2-090-9 or vehicle control (DMSO). Media was aspirated and replaced with 100 μl complete media containing 1 mg/ml MTT and incubated for three hours at 37° C. in 5% CO2 humidified incubator. Media was then aspirated and DMSO was added. Cells were incubated for 10 min at room temperature while shaking, and the absorbance was determined at 540 nm using a μQuant spectrophotometric plate reader (Bio-TEK, Winooski, Vt.).

[4] = hydronaphthoquinone sulfonamides (Table 9), read-out: IC50 (μM), inhibition of chymotrypsin-like activity
[5] = PI-083 derivatives (Table 7, naphthoquinone library), read-out: IC50 (μM) Chymotrypsin-like activity

Row | Structure (SMILES) | proteasome (chymotrypsin-like) inhibitory activity, in words [1] | IC50 [1, 4] [µM] | other results
1 | O=S(=O)(Nc1cc(SCCO)c(O)c2ccccc12)c1cccs1 [Compound 14k, N-(4-hydroxy-3-(2-hydroxyethylthio)naphthalen-1-yl)thiophene-2-sulfonamide] | the inhibitory activity totally lost |  | 
2 | CCOC(=O)CSc1cc(NS(=O)(=O)c2ccc([N+](=O)[O-])cc2)c2ccccc2c1O [Compound 9e, Ethyl 2-(1-hydroxy-4-(4-nitrophenylsulfonamido)naphthalen-2-ylthio)acetate] |  | 3.57 ± 1.53 | 
3 | O=C(O)CSc1cc(NS(=O)(=O)c2ccc3ccccc3c2)c2ccccc2c1O [Compound 14q, 2-(1-hydroxy-4-(naphthalene-2-sulfonamido)naphthalen-2-ylthio)acetic acid] |  | 4.83 ± 0.79 | decrease of proteasome inhibition activity relative to comparator compound [1]: 3 fold
4 | CC(Sc1cc(NS(=O)(=O)c2ccc(Cl)cc2)c2ccccc2c1O)C(=O)O (stereo not shown) [Compound 14u, 2-(4-(4-chlorophenylsulfonamido)-1-hydroxynaphthalen-2-ylthio)propanoic acid] |  | 8.57 ± 0.67 | decrease of proteasome inhibition activity relative to comparator compound [1]: ~2 fold
5 | CCOC(=O)CSc1cc(NS(=O)(=O)c2cccs2)c2ccccc2c1O [Compound 9a, Ethyl 2-(1-hydroxy-4-(thiophene-2-sulfonamido)naphthalen-2-ylthio)acetate] |  | 7.33 ± 2.82 | 
6 | O=C(O)c1ccccc1Sc1cc(NS(=O)(=O)c2ccc(-c3ccccc3)cc2)c2ccccc2c1O [Compound 14t, 2-(4-(biphenyl-4-ylsulfonamido)-1-hydroxynaphthalen-2-ylthio)benzoic acid] |  | 2.19 ± 0.23 | 
7 | CCOC(=O)CSc1cc(NS(=O)(=O)c2ccccc2)c2ccccc2c1O [Compound 9c, Ethyl 2-(1-hydroxy-4-(phenylsulfonamido)naphthalen-2-ylthio)acetate] |  | 5.27 ± 2.23 | 
8 | CCSc1cc(NS(=O)(=O)c2cccs2)c2ccccc2c1O [Compound 14j, N-(3-(ethylthio)-4-hydroxynaphthalen-1-yl)thiophene-2-sulfonamide] | the inhibitory activity totally lost |  | 
9 | COC(=O)CCSc1cc(NS(=O)(=O)c2cccs2)c2ccccc2c1O [Compound 9b, Methyl 3-(1-hydroxy-4-(thiophene-2-sulfonamido)naphthalen-2-ylthio)propanoate] |  | 4.99 ± 2.08 | 
10 | O=C(O)CSc1cc(NS(=O)(=O)c2cc(Cl)c(Cl)s2)c2ccccc2c1O [Compound 14n, 2-(4-(4,5-dichlorothiophene-2-sulfonamido)-1-hydroxynaphthalen-2-ylthio)acetic acid] |  | 2.07 ± 0.55 | 
11 | Cn1nnnc1Sc1cc(NS(=O)(=O)c2cccs2)c2ccccc2c1O [Compound 14d, N-(4-hydroxy-3-(1-methyl-1H-tetrazol-5-ylthio)naphthalen-1-yl)thiophene-2-sulfonamide] | comparable inhibition potency against proteasome to the lead compound | 4.25 ± 2.13 | 
12 | O=C(O)CS(=O)(=O)c1cc(NS(=O)(=O)c2cccs2)c2ccccc2c1O [Compound 10f, 2-(1-hydroxy-4-(thiophene-2-sulfonamido)naphthalen-2-ylsulfonyl)acetic acid] | diminished the inhibitory activity |  | 
13 | CC(Sc1cc(NS(=O)(=O)c2ccc3ccccc3c2)c2ccccc2c1O)C(=O)O (stereo not shown) [Compound 14v, 2-(1-hydroxy-4-(naphthalene-2-sulfonamido)naphthalen-2-ylthio)propanoic acid] |  | 9.11 ± 0.47 | decrease of proteasome inhibition activity relative to comparator compound [1]: ~2 fold
14 | O=C1C(Cl)=C(Nc2ccc(S(=O)(=O)Nc3nccs3)cc2)C(=O)c2ccccc21 [Compound 2s, 4-(3-chloro-1,4-dioxo-1,4-dihydronaphthalen-2-ylamino)-N-(thiazol-2-yl)benzene-sulfonamide] |  |  | melting point: 286 to 288 °C; IC50 [2]: > 10 µM; IC50 [1, 5]: 3.3 µM
15 | O=C(O)CSc1cc(NS(=O)(=O)c2ccc(Cl)cc2)c2ccccc2c1O [Compound 14p, 2-(4-(4-chlorophenylsulfonamido)-1-hydroxynaphthalen-2-ylthio)acetic acid] |  | 3.75 ± 0.3 | 
16 | O=S(=O)(Nc1ccc(O)c2ccccc12)c1cccs1 [Compound 3, N-(4-hydroxynaphthalen-1-yl)thiophene-2-sulfonamide] | loss of the inhibitory activity |  | 
17 | Cc1cc(NS(=O)(=O)c2ccc(NC3=C(Cl)C(=O)c4ccccc4C3=O)cc2)no1 [Compound 2d, 4-(3-chloro-1,4-dioxo-1,4-dihydronaphthalen-2-ylamino)-N-(5-methylisoxazol-3-yl)benzenesulfonamide] |  |  | melting point: 215 to 217 °C; IC50 [2]: > 10 µM; IC50 [1, 5]: 5.9 µM
18 | Cc1nnc(NS(=O)(=O)c2ccc(NC3=C(Cl)C(=O)c4ccccc4C3=O)cc2)s1 [Compound 2f, 4-(3-chloro-1,4-dioxo-1,4-dihydronaphthalen-2-ylamino)-N-(5-methyl-1,3,4-thiadiazol-2-yl)benzenesulfonamide] |  |  | melting point: 220 °C (dec.); IC50 [2]: > 10 µM; IC50 [1, 5]: 3.9 µM
19 | O=C1C(Cl)=C(Nc2ccc(S(=O)(=O)Nc3cnn(-c4ccccc4)c3)cc2)C(=O)c2ccccc21 [Compound 2b, 4-(3-chloro-1,4-dioxo-1,4-dihydronaphthalen-2-ylamino)-N-(1-phenyl-1H-pyrazol-4-yl)benzenesulfonamide] |  |  | melting point: 230 to 231 °C; IC50 [2]: > 10 µM; IC50 [1, 5]: 7.4 µM
20 | O=S(=O)(Nc1cc(Sc2ncn[nH]2)c(O)c2ccccc12)c1cccs1 [Compound 14e, N-(3-(1H-1,2,4-triazol-5-ylthio)-4-hydroxynaphthalen-1-yl)thiophene-2-sulfonamide] | comparable inhibition potency against proteasome to the lead compound |  | 
21 | O=C(O)CCSc1cc(NS(=O)(=O)c2cccs2)c2ccccc2c1O [Compound 10b, 3-(1-hydroxy-4-(thiophene-2-sulfonamido)naphthalen-2-ylthio)propanoic acid] |  | > 10 | 
22 | O=C(O)CSc1cc(NS(=O)(=O)c2cccs2)c2ccccc2c1O [Compound 10a, 2-(1-hydroxy-4-(thiophene-2-sulfonamido)naphthalen-2-ylthio)acetic acid] | comparable proteasome inhibition activity to the commercial sample HLM-008182 | 1.3 ± 0.76 | IC50 ([1]; hydronaphthoquinone sulfonamides (Table 9), listed as HLM-008182, read-out: IC50 (μM), inhibition of chymotrypsin-like activity): 0.65 ± 0.4 µM; IC50 ([3]; Homo sapiens, MCF7, 72 h): 7.67 ± 1.61 µM; IC50 [3]: 10.9 ± 2.77 µM
23 | Cc1noc(NS(=O)(=O)c2ccc(NC3=C(Cl)C(=O)c4ccccc4C3=O)cc2)c1C [Compound 2h, 4-(3-chloro-1,4-dioxo-1,4-dihydronaphthalen-2-ylamino)-N-(3,4-dimethylisoxazol-yl)-benzenesulfonamide] |  |  | melting point: 208 to 210 °C; IC50 [2]: > 10 µM; IC50 [1, 5]: 6.4 µM
24 | O=C(O)COc1cc(NS(=O)(=O)c2cccs2)c2ccccc2c1O [Compound 10d, 2-(1-hydroxy-4-(thiophene-2-sulfonamido)naphthalen-2-yloxy)acetic acid] | diminished the inhibitory activity |  | 
25 | COC(=O)CCSc1cc(NS(=O)(=O)c2cc(Cl)c(Cl)s2)c2ccccc2c1O [Compound 14m, Methyl-3-(4-(4,5-dichlorothiophene-2-sulfonamido)-1-hydroxynaphthalen-2-ylthio)propanoate] |  | 1.18 ± 0.3 | 
